From ChEMBL document CHEMBL4418308, “cGAS ANTAGONIST COMPOUNDS” (2017)
pIC50: −log10 of the molar value.

biological target: Cyclic GMP-AMP synthase (Homo sapiens, UniProt Q8N884); experiment: Inhibition of recombinant His6-SUMO tagged human CGAS expressed in Escherichia coli BL21/pLys cells incubated for 20 mins by Kinase Glo chemiluminescence assay
Sequence (Q8N884 whole entry): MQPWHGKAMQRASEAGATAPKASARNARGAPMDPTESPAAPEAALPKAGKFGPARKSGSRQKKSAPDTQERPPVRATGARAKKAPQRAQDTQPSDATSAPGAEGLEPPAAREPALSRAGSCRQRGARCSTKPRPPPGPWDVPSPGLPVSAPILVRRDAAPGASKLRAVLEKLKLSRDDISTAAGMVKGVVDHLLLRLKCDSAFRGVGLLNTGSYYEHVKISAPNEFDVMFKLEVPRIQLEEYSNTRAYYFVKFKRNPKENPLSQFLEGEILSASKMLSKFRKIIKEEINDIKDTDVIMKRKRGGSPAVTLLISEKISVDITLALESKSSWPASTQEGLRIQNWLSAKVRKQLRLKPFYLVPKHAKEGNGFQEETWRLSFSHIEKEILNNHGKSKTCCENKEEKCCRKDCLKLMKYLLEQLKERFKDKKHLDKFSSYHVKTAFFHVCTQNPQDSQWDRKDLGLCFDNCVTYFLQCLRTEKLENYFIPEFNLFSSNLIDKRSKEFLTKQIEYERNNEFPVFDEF

Row | Structure (SMILES) | pIC50
1 | O=C1NC(=O)/C(=C/c2ccncc2)N1 | 5.00 to 6.30
2 | O=C1NC(=O)/C(=C/c2cccnc2)S1 | ≤ 5.00
3 | O=C1NC(=O)/C(=C/c2ccncc2)S1 | ≥ 6.30
4 | O=C1/C(=C/c2cc3oc(=O)[nH]c3cc2Br)Sc2ncccc21 | ≤ 5.00
5 | COc1cc(/C=C2\Sc3ncccc3C2=O)c(Br)c(Br)c1O | ≤ 5.00
6 | CC(Oc1cc(/C=C2\SC(=O)N(C)C2=O)c(Br)cc1O)c1cncnc1 (centres undefined) | 5.00 to 6.30
7 | O=C1/C(=C/c2ccc(O)cc2Br)Sc2ncccc21 | ≥ 6.30
8 | CN1C(=O)S/C(=C\c2cc(OCc3ccnc(N)c3)c(O)cc2Br)C1=O | 5.00 to 6.30
9 | O=C1NC(=O)/C(=C/c2cncnc2)S1 | ≤ 5.00
10 | COc1cc(/C=c2\sc3n(c2=O)CCCN=3)c(Cl)cc1O | ≤ 5.00
11 | CN1C(=O)S/C(=C\c2cc3nn[nH]c3cc2Br)C1=O | ≤ 5.00
12 | CN1C(=O)S/C(=C\c2cc3cc[nH]c3cc2Br)C1=O | 5.00 to 6.30
13 | CN1C(=O)S/C(=C\c2cc(OCc3ccc(=O)[nH]c3)c(O)cc2Br)C1=O | 5.00 to 6.30
14 | COc1cc(/C=c2\sc3n(c2=O)CCN=3)c(Cl)cc1O | ≤ 5.00
15 | CN1C(=O)S/C(=C\c2cc(OCc3cnc(C4CCNCC4)nc3)c(O)cc2Br)C1=O | 5.00 to 6.30
16 | CN1C(=O)S/C(=C\c2cc(OCc3cnc(Nc4cccnc4)nc3)c(O)cc2Br)C1=O | 5.00 to 6.30
17 | COc1cc(/C=C2\Sc3ncccc3C2=O)c(C)cc1O | 5.00 to 6.30
18 | CCc1cc(/C=C2\SC(=O)N(C)C2=O)c(Br)cc1O | 5.00 to 6.30
19 | COc1cc(/C=c2\sc3n(c2=O)CCCN=3)c(Br)cc1O | ≤ 5.00
20 | C#Cc1cc(O)c(OC)cc1/C=C1\SC(=O)N(C)C1=O | ≤ 5.00

Row | Structure (SMILES) | pIC50
21 | N=C1NC(=O)/C(=C/c2ccncc2)S1 | ≤ 5.00
22 | COc1cc(/C=C2\Sc3nccnc3C2=O)c(Br)cc1O | ≤ 5.00
23 | O=C1NC(=O)/C(=C/c2ccncc2C(F)(F)F)S1 | ≤ 5.00
24 | COc1cc(/C=C2\SC(=O)N(C)C2=S)c(Br)cc1O | ≥ 6.30
25 | CN1C(=O)S/C(=C\c2cc(OCc3ccc(NC(=O)c4cccnc4)nc3)c(O)cc2Br)C1=O | 5.00 to 6.30
26 | CN1C(=O)S/C(=C\c2cc(OCc3cnc(N)nc3C3CC3)c(O)c(F)c2Br)C1=O | 5.00 to 6.30
27 | CN1C(=O)S/C(=C\c2cc3oc(=O)[nH]c3cc2Br)C1=O | ≤ 5.00
28 | COc1cc(/C=c2\sc3n(c2=O)CCN=3)c(Br)cc1O | ≤ 5.00
29 | COc1cc(/C=C2\SC(=O)N(C)C2=O)c(Br)c(Cl)c1O | ≤ 5.00
30 | COc1cc(/C=C2\SC(=O)N(C)C2=O)c(C(F)(F)F)cc1O | ≤ 5.00
31 | COc1cc(/C=C2\Sc3cnccc3C2=O)c(Br)cc1O | ≥ 6.30
32 | CCc1cc(/C=C2\Sc3ncccc3C2=O)c(Br)cc1O | ≥ 6.30
33 | COc1cc(/C=C2\SC(=O)N(C)C2=O)c(C)cc1O | 5.00 to 6.30
34 | COc1cc(/C=C2\SC(=O)N(C)C2=O)c(Br)cc1NS(C)(=O)=O | ≤ 5.00
35 | COc1cc(/C=C2\SC(=O)N(C)C2=O)c(F)cc1O | ≤ 5.00
36 | COc1cc(/C=C2\Sc3ncccc3C2=O)c(Br)c(Cl)c1O | ≥ 6.30
37 | O=C1NC(=O)/C(=C/c2ccnnc2)N1 | ≤ 5.00
38 | O=C1NC(=O)/C(=C2\CCCc3cnccc32)S1 | ≥ 6.30
39 | CN1C(=O)S/C(=C\c2cc(OCc3ccnc(N)n3)c(O)cc2Br)C1=O | 5.00 to 6.30
40 | COc1cc(/C=c2\sc3nc(C)cn3c2=O)c(Br)cc1O | ≤ 5.00

Row | Structure (SMILES) | pIC50
41 | CN1C(=O)S/C(=C\c2cc(O)c(O)cc2F)C1=O | ≤ 5.00
42 | COc1cc(/C=C2\SC(=O)N(C)C2=O)c(Br)cc1NS(=O)(=O)C(F)(F)F | 5.00 to 6.30
43 | COc1cc(/C(Br)=C2\SC(=O)N(C)C2=O)c(Br)cc1O | ≤ 5.00
44 | CN1C(=O)S/C(=C\c2cc(OCc3cc[nH]c(=O)c3)c(O)cc2Br)C1=O | 5.00 to 6.30
45 | O=C1NC(=O)/C(=C/c2c[nH]cn2)S1 | ≤ 5.00
46 | CC(=O)Nc1nc(S(=O)(=O)Nc2cc(Br)c(/C=C3\SC(=O)N(C)C3=O)cc2OCc2ccccc2)cs1 | 5.00 to 6.30
47 | C/C(=C1/SC(=O)NC1=O)c1ccncc1 | ≥ 6.30
48 | COc1ncc(COc2cc(/C=C3\SC(=O)N(C)C3=O)c(Br)cc2O)cn1 | 5.00 to 6.30
49 | COc1cc(/C=C/C=C2\SC(=O)N(C)C2=O)c(Br)cc1O | ≤ 5.00
50 | O=C1/C(=C/c2cc3nn[nH]c3cc2Br)Sc2ncccc21 | ≥ 6.30
51 | COc1cc(/C=C2\Sc3ncccc3C2=O)c(I)cc1O | ≥ 6.30
52 | CN1C(=O)S/C(=C\c2cc(OCc3cnc(-c4ccccn4)nc3)c(O)cc2Br)C1=O | 5.00 to 6.30
53 | COc1cc2c(cc1O)CC/C2=C1/SC(=O)N(C)C1=O | ≤ 5.00
54 | CSc1cc(/C=C2\SC(=O)N(C)C2=O)c(Br)cc1O | 5.00 to 6.30
55 | O=C1NC(=O)/C(=C/c2cnccn2)S1 | ≤ 5.00
56 | Cc1cnccc1/C=C1\SC(=O)NC1=O | ≥ 6.30
57 | CN1C(=O)S/C(=C\c2cc(OCC3CCN(C(=O)c4cccnc4)CC3)c(O)cc2Br)C1=O | 5.00 to 6.30
58 | COc1cc(/C=C2\Sc3ncncc3C2=O)c(Br)cc1O | 5.00 to 6.30
59 | COc1cc(/C=C2\Sc3ncc(F)cc3C2=O)c(Br)cc1O | ≥ 6.30
60 | COc1cc(/C=C2\Sc3ncccc3C2=O)c(Br)cc1Oc1cnc(N)s1 | ≤ 5.00

Next, values leading:

Row | pIC50 | Structure (SMILES)
61 | ≤ 5.00 | CN1C(=O)S/C(=C\c2cc(OCc3cncc(N)c3)c(O)cc2Br)C1=O
62 | ≥ 6.30 | CN1C(=O)S/C(=C\c2cc(OCc3cnc(NC(=O)c4ccncc4)nc3)c(O)cc2Br)C1=O
63 | ≤ 5.00 | CN1C(=O)S/C(=C\c2cc(OCc3cnc(Nc4ccccc4)nc3)c(O)cc2Br)C1=O
64 | ≤ 5.00 | CN1C(=O)S/C(=C\c2cc(OCc3cnc(C4CC4)nc3)c(O)cc2Br)C1=O
65 | ≤ 5.00 | CSc1ncc(COc2cc(/C=C3\SC(=O)N(C)C3=O)c(Br)cc2O)c(Cl)n1
66 | ≥ 6.30 | O=C1/C(=C/c2cc(OCc3ccncc3)c(O)cc2Br)Sc2ncccc21
67 | ≤ 5.00 | CC(C)COc1cc(/C=C2\SC(=O)N(C)C2=O)c(Br)cc1O
68 | ≤ 5.00 | CC(C)Nc1ncc(COc2cc(/C=C3\SC(=O)N(C)C3=O)c(Br)cc2O)cn1
69 | ≤ 5.00 | CN1C(=O)S/C(=C\c2cc(OCc3cnc(N(C)C)nc3)c(O)cc2Br)C1=O
70 | ≤ 5.00 | CN1C(=O)S/C(=C\c2cc(OCC3CCN(C(=O)c4ccccc4)CC3)c(O)cc2Br)C1=O
71 | ≤ 5.00 | COc1cc(/C=C2\SC(=O)N(C)C2=O)c(Br)cc1-c1nn[nH]n1
72 | ≤ 5.00 | CN1C(=O)S/C(=C\c2cc(OCc3cnc(Nc4ccccn4)nc3)c(O)cc2Br)C1=O
73 | ≥ 6.30 | Cc1ncc(COc2cc(/C=C3\SC(=O)N(C)C3=O)c(Br)cc2O)cn1
74 | ≤ 5.00 | CN1C(=O)S/C(=C\c2cc(OCC3CCN(C(=O)c4ccccn4)CC3)c(O)cc2Br)C1=O
75 | ≤ 5.00 | COc1cc(/C=C2\SC(=O)N(C)C2=O)c(Br)cc1NS(=O)(=O)c1ccccc1
76 | ≤ 5.00 | CN1C(=O)S/C(=C\c2cc(OCc3cnc(N4CCCCC4)nc3)c(O)cc2Br)C1=O
77 | ≥ 6.30 | CC(Oc1cc(/C=C2\SC(=O)N(C)C2=O)c(Br)cc1O)c1cnc(N)nc1 (centres undefined)
78 | ≤ 5.00 | COc1nc(SC)ncc1COc1cc(/C=C2\SC(=O)N(C)C2=O)c(Br)cc1O
79 | ≥ 6.30 | CC(Oc1cc(/C=C2\Sc3ncccc3C2=O)c(Br)cc1O)c1cnc(Cl)nc1 (centres undefined)
80 | ≥ 6.30 | CN1C(=O)S/C(=C\c2cc(OCc3cnc(-c4ccncc4)nc3)c(O)cc2Br)C1=O
81 | ≤ 5.00 | CN1C(=O)S/C(=C\c2cc(OCc3ccccc3)c(O)cc2Br)C1=O
82 | ≤ 5.00 | CNc1ncc(C(C)Oc2cc(/C=C3\SC(=O)N(C)C3=O)c(Br)c(F)c2O)cn1 (centres undefined)
83 | ≤ 5.00 | CC(=O)c1cc(/C=C2\SC(=O)N(C)C2=O)c(Br)cc1O
84 | ≤ 5.00 | CN1CCC(COc2cc(/C=C3\SC(=O)N(C)C3=O)c(Br)cc2O)CC1
85 | ≤ 5.00 | CN1C(=O)S/C(=C\c2cc(OCc3ccc(NC(=O)c4ccccn4)nc3)c(O)cc2Br)C1=O

Row | pIC50 | Structure (SMILES)
86 | ≤ 5.00 | CN1C(=O)S/C(=C\c2cc(Oc3ccccc3)c(O)cc2Br)C1=O
87 | ≤ 5.00 | CN1C(=O)S/C(=C\c2cc(Oc3ccc([N+](=O)[O-])nc3)c(O)cc2Br)C1=O
88 | ≤ 5.00 | CN1C(=O)S/C(=C\c2cc(OCc3cnc(N4CCOCC4)nc3)c(O)cc2Br)C1=O
89 | ≤ 5.00 | CN1C(=O)S/C(=C\c2cc(OCC3CCN(C(=O)c4ccncc4)CC3)c(O)cc2Br)C1=O
90 | ≥ 6.30 | CN1C(=O)S/C(=C\c2cc(OCc3cnc(Nc4ccncc4)nc3)c(O)cc2Br)C1=O
91 | ≤ 5.00 | CSc1ncc(COc2cc(/C=C3\SC(=O)N(C)C3=O)c(Br)cc2O)c(SC)n1
92 | ≤ 5.00 | CN1C(=O)S/C(=C\c2cc(OCc3cnc(N4CCCC4)nc3)c(O)cc2Br)C1=O
93 | ≤ 5.00 | CN1C(=O)S/C(=C\c2ccc(O)cc2Br)C1=O
94 | ≥ 6.30 | CN1C(=O)S/C(=C\c2cc(OCc3ccc(NC(=O)c4ccncc4)nc3)c(O)cc2Br)C1=O
95 | ≤ 5.00 | CN1C(=O)S/C(=C\c2cc(OCc3cnc(-c4ccccc4)nc3)c(O)cc2Br)C1=O
96 | ≤ 5.00 | CN1C(=O)S/C(=C\c2cc(OCc3ccn(Cc4ccccc4)c(=O)c3)c(O)cc2Br)C1=O
97 | ≤ 5.00 | CSc1ncc(COc2cc(/C=C3\SC(=O)N(C)C3=O)c(Br)cc2O)cn1
98 | 5.00 to 6.30 | CC(Oc1cc(/C=C2\Sc3ncccc3C2=O)c(Br)cc1O)c1cccnc1 (centres undefined)
99 | ≤ 5.00 | CC(Oc1cc(/C=C2\SC(=O)N(C)C2=O)c(Br)cc1O)c1cnc(Cl)nc1 (centres undefined)
100 | ≥ 6.30 | Nc1ncc(COc2cc(/C=C3\Sc4ncccc4C3=O)c(Br)cc2O)c(C(F)(F)F)n1
101 | ≤ 5.00 | CN1C(=O)S/C(=C\c2cc(OCc3cnc(NCc4ccccc4)nc3)c(O)cc2Br)C1=O
102 | ≥ 6.30 | Cc1ncc(COc2cc(/C=C3\Sc4ncccc4C3=O)c(Br)cc2O)c(C)n1
103 | ≤ 5.00 | CN1C(=O)S/C(=C\c2cc(OCc3ccn(-c4ccccc4)c(=O)c3)c(O)cc2Br)C1=O
104 | ≤ 5.00 | CNc1ncc(C(C)Oc2cc(/C=C3\SC(=O)N(C)C3=O)c(Br)cc2O)cn1 (centres undefined)
105 | ≤ 5.00 | CN1C(=O)S/C(=C\c2cc(OCc3ccccn3)c(O)cc2Br)C1=O
106 | ≤ 5.00 | COc1cc(/C=C2\SC(=O)N(C)C2=O)c(Br)cc1NS(=O)(=O)c1ccc(C)cc1
107 | ≤ 5.00 | CN1C(=O)S/C(=C\c2cc(Oc3ccnc(N)c3)c(O)cc2Br)C1=O
108 | ≤ 5.00 | CC(C)CNc1ncc(COc2cc(/C=C3\SC(=O)N(C)C3=O)c(Br)cc2O)cn1
109 | ≤ 5.00 | CN1C(=O)S/C(=C\c2cc(OCc3cnc(-c4cccnc4)nc3)c(O)cc2Br)C1=O
